Measured values reported in patent publication US10265378B2, “Combination therapy for head and neck cancer” (Cornell University, priority 2014, dated 2019).

Columns and labels:
[1] = test system: MCT4; test: Immunohistochemistry of tongue epithelium: MCT4; assay type: in vivo, mouse; conditions: compared to the 4-NQO group; antibody staining
Excerpt: (§1) The tongues were fixed, embedded in paraffin, and sectioned. Then the tissue sections were stained with various antibodies (magnification, 200×). Four to five representative areas of each tongue section from two to four mice/group were photographed and analyzed (FIGS. 12A and 12B). Interleukin-6 (IL-6) is a multifunctional cytokine that is involved in the regulation of immune responses and cellular functions. IL-6 levels are enhanced in human oral squamous cell carcinoma and IL-6 is considered a bad prognostic factor in this cancer (Expert Opin Ther Targets. 2013 January; 17(1):53-9). IL-6 protein was detected primarily in the basal layer of tongue epithelium in the UNT samples (FIG. 12A, arrows), but in the 4-NQO treated samples we observed both an increase in the protein level and an expansion of IL-6 signal to the suprabasal layers of the tongue epithelium (FIG. 12A).

[2] = test system: 4-hydroxynonenal (4-HNE), marker of oxidative stress; test: Immunohistochemistry of tongue epithelium: 4-HNE; assay type: in vivo, mouse; conditions: compared to the 4-NQO group; antibody staining
Description: (§2) Immunohistochemistry. Paraffin embedded tongue sections were stained with various antibodies (supporting information).
(§3) Immunohistochemistry. Paraffin-embedded sections (from two to four mice per group) were deparaffinized and rehydrated, and antigen retrieval was performed using an antigen unmasking solution (Vector Laboratories, H-3300). After quenching endogenous peroxidase with 3% H2O2, the tissue sections were blocked with the blocking reagent (from the M.O.M. kit from Vector Laboratories for 4-HNE) or 10% goat serum (Vector Laboratories). Then, tissue sections were incubated with a 4-HNE antibody (1:700; mouse monoclonal antibody; Abcam, ab48506), a β-catenin antibody (1:400; rabbit polyclonal antibody; Abcam, ab6302), or a MMP9 antibody (1:70; rabbit polyclonal antibody; Abcam, ab38898), respectively, overnight at 4° C. The sections were then incubated with secondary antibodies (1:200, anti-mouse IgG from the M.O.M kit for 4-1-INE; ready-to-use anti-rabbit IgG from the Invitrogen SuperPicture kit for β-catenin and MMP9). As a negative control, sections were stained without incubation with primary antibodies. The signals were visualized based on a peroxidase detection mechanism with 3,3-diaminobenzidine (DAB) used as the substrate. Four to five representative areas of each mouse tongue section from two to four mice per group were photographed and analyzed.

[3] = Mouse serum triglyceride level measurements; assay type: in vivo; conditions: treatment for 15 weeks; compared to the UNT group
Description: Mouse serum triglyceride level measurements. Blood samples from the mice were obtained from mouse tails. The analysis of serum triglyceride levels was carried out at the Laboratory of Comparative Pathology of the Memorial Sloan-Kettering Cancer Center. UNT (n=4); 4-NQO (n=3); 4N+B (n=4); 4N+C (n=3), and 4N+B+C (n=4).

[4] = test system: GO categories in mouse tongue; test: Gene ontology (GO) analysis of RNA-Seq data; assay type: in vivo; conditions: compared to the 4-NQO group
Description: Gene ontology (GO) analysis. Gene ontology (GO) analysis (p-value cutoff: 0.00001), using the ConsensusPathDB online tool, was conducted on the Gene Ontology level 3 of the “Biological Process” domain that has predefined, functional sets for enrichment analysis with default parameter settings.

[5] = Stability of CD1530 in drinking water by HPLC; assay type: physicochemical; conditions: room temperature, final DMSO 0.8%
Excerpt: FIG. 7. CD1530 is stable in the drinking water for at least 7 days at room temperature. CD1530 was first dissolved in 100% DMSO and subsequently diluted in the drinking water (the final concentration of DMSO was 0.8%). The same amounts of the freshly prepared CD1530 containing drinking water and the CD1530 containing water prepared 7 days earlier and stored at the room temperature were subjected to high-performance liquid chromatography (HPLC) analysis.
(§4) Drug treatments reduce tongue tumor development. All of the mice tolerated the 10 week 4-NQO treatment, and almost all of the mice survived the 15 week post 4-NQO treatment period (A). We determined that the CD1530 in the regular drinking water was stable for at least 7 days at room temperature by HPLC analysis (FIG. 7); thus, we decided to use drinking water as a delivery method because this method is effective and less laborious.

[6] = test system: tongue lesions (4-NQO induced oral cavity carcinogenesis); test: 4-NQO mouse oral cavity carcinogenesis model: gross tongue lesion number and severity
[7] = test system: β-catenin; test: Immunohistochemistry of tongue epithelium: β-catenin; assay type: in vivo, mouse; conditions: compared to the 4-NQO group; antibody staining
Description: as §2, §3

[8] = Consumption of drug containing drinking water and diet; assay type: in vivo, mouse; conditions: 4-NQO treated mice, 15 week post 4-NQO treatment
Excerpt: as §4

[9] = test system: IL-6; test: Immunohistochemistry of tongue epithelium: IL-6; assay type: in vivo, mouse; conditions: compared to the 4-NQO group; antibody staining
Excerpt: as §1

[10] = test system: mouse tongue mRNA transcriptome; test: RNA-Seq analysis of the mRNA transcriptome of mouse tongues; assay type: in vivo
Description: RNA-Seq analysis of the mRNA transcriptome. One part of each mouse tongue (same position on each mouse tongue) was snap frozen in liquid N2 and stored at −70° C. until total RNA extraction. Total tissue RNA was extracted and subjected to Next-Generation Sequencing (RNA-Seq) at the Genomics Resources Core Facility, Weill Cornell Medical College. Bioinfomatics analyses were performed using the Tophat and Cufflink software. (supporting information).
RNA-Seq analysis of mRNA transcriptome. […] The GEO Accession number is GSE54246; embargoed until publication.

[11] = compared to the 4-NQO group, p<0.05

Question: Which results are given for `O=C(O)c1ccc(-c2ccc3cc(O)c(C45CC6CC(CC(C6)C4)C5)cc3c2)cc1` [CD1530]?
Answer: MCT4 protein levels in the tongue epithelium [1]: lower MCT4 protein levels; 4-HNE levels in tongue samples [2]: lower; serum triglyceride levels [3]: did not change serum triglyceride levels significantly; GO categories related to cell cycle, DNA replication, and mitosis [4]: most under-expressed; over-represented GO categories [4]: over-representation of many GO categories, with some of them involved in lipid metabolism; stable in the drinking water [5]: at least 7 days; number of tongue lesions (gross tongue lesion multiplicity) ([6]; C57BL/6 female mice, 4-NQO 10 weeks, then drug in 15 week post 4-NQO period, bexarotene 300 mg/kg diet, CD1530 […]100 ml drinking water, 4-NQO group 5.9±3.2): 3.9±1.7; average severity of tongue lesions (grade 0-4) ([6]; same model, 4-NQO group 2.8±0.8): 1.6±0.8; β-catenin protein levels in the tongue epithelium [7]: lower β-catenin protein levels; consumption of drinking water containing drug vs regular drinking water [8]: comparable; IL-6 protein levels in the tongue epithelium [9]: lower IL-6 protein levels; transcript levels of DNA replication genes (MCM 2-7 and 10, DNA2, LIG1, ORC1, POLA1, PRIM2) ([10]; compared to the 4-NQO group): significantly lower transcript levels of the majority of these genes; number of genes with decreased transcript levels [10, 11]: 531; number of genes with increased transcript levels [10, 11]: 987; number of genes with significantly different transcript levels [10, 11]: 1518; Cyp26a1 mRNA level ([10]; greater than in other groups, RARγ target gene): about 20 fold
